We go through four molecules from ChEMBL document CHEMBL5154644, “Design, Synthesis, and Structure-Activity Relationship Optimization of Pyrazolopyrimidine Amide Inhibitors of Phosphoinositide 3-Kinase γ (PI3Kγ)” (J Med Chem, 2022).

A value given as a limit tells only on which side of the number the result lay.

T2 sequence (P48736 whole entry, canonical isoform): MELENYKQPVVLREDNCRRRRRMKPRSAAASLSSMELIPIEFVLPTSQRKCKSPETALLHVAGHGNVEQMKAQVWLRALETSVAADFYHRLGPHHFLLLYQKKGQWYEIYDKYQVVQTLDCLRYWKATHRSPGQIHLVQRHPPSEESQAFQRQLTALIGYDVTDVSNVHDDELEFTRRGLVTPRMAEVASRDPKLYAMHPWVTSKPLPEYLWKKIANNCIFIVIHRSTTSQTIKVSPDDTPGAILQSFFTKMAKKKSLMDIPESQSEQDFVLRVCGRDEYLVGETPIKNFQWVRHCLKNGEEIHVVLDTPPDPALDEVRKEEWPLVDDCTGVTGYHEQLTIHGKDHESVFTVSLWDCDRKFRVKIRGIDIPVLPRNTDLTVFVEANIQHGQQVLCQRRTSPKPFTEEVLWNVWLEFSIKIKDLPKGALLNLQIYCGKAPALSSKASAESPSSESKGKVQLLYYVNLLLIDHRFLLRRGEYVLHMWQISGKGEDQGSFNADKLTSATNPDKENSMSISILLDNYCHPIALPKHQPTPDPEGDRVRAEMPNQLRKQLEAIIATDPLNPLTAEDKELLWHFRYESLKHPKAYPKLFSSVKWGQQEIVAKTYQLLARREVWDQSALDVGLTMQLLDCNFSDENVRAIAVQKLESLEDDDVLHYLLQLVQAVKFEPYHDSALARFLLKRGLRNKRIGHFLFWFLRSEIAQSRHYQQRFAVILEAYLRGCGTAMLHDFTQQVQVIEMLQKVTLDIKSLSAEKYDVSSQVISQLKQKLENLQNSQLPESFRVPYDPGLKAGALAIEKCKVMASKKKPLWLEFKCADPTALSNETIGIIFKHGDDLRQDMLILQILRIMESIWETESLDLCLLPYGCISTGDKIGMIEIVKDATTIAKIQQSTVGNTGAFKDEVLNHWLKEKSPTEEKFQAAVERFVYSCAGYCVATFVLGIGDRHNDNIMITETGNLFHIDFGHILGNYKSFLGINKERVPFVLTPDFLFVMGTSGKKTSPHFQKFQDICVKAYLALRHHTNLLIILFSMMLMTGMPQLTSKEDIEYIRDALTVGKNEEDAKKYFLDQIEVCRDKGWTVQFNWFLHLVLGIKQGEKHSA

The first series is filed under the species Homo sapiens. As to the kind of experiment: Selectivity ratio of IC50 for inhibition of PI3Kdelta (unknown origin) to IC50 for inhibition of PI3Kgamma (unknown origin).
Conditions: not given
Regarding `C[C@@H](C1CC1)N1Cc2cc(-c3ccn4nc(N)c(C(=O)NC5CC5)c4n3)cc(S(=O)(=O)C3CCC3)c2C1=O`, the Ratio IC50 is 124.

As to `C[C@@H](C1CC1)N1Cc2cc(-c3ccn4nc(N)c(C(=O)NC5CC5)c4n3)cc(Cl)c2C1=O`, the Ratio IC50 stood at 589.

For `C[C@H](N1Cc2cc(-c3ccn4nc(N)c(C(=O)NC5CC5)c4n3)cc(NS(C)(=O)=O)c2C1=O)C(F)(F)F`, the Ratio IC50 is 89.

In the case of `C[C@@H](C1CC1)N1Cc2cc(-c3ccn4nc(N)c(C(=O)NC5CC5)c4n3)cc(C3CC3)c2C1=O`, the Ratio IC50 was 178.

For a further series, the target named is T1, Phosphatidylinositol 4,5-bisphosphate 3-kinase catalytic subunit delta isoform (Homo sapiens, UniProt O00329).
T1 sequence (O00329 whole entry): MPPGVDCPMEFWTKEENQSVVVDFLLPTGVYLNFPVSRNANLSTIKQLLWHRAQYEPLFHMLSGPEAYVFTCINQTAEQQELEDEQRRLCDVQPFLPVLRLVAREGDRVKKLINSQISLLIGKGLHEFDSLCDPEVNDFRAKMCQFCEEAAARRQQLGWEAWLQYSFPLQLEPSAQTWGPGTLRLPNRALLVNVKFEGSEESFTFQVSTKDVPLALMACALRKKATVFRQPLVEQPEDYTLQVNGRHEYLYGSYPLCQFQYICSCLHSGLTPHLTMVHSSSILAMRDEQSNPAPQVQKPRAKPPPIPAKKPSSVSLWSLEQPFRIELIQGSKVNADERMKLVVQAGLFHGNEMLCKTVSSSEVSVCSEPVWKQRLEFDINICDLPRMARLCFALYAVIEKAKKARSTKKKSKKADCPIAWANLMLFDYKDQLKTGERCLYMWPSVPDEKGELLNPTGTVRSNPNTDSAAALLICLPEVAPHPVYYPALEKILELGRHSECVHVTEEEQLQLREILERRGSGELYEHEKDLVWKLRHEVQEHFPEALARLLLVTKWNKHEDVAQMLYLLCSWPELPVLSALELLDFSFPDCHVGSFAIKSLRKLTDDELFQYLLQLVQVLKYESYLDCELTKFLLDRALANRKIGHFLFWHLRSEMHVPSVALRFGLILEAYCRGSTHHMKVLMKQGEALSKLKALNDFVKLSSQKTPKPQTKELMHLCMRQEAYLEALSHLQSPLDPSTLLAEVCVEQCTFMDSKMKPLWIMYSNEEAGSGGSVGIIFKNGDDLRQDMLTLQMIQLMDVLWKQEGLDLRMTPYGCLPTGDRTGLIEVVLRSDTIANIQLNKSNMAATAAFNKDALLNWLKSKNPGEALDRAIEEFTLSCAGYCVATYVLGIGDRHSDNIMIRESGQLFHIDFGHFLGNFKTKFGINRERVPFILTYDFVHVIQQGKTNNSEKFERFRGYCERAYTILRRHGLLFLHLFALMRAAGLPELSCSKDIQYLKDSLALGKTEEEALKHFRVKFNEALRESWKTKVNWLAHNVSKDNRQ
As to the kind of experiment: Inhibition of PI3Kdelta (unknown origin) using PIP2 as substrate preincubated for 1 hr followed by substrate addition and measured after 60 mins in presence of ATP by ADP-glo assay.
Conditions: not given
Broadly, the IC50 is the midpoint of a concentration-inhibition curve. With `C[C@@H](C1CC1)N1Cc2cc(-c3ccn4nc(N)c(C(=O)NC5CC5)c4n3)cc(S(=O)(=O)C3CCC3)c2C1=O`, the IC50 turned out to be 376 nM.

Turning to `C[C@@H](C1CC1)N1Cc2cc(-c3ccn4nc(N)c(C(=O)NC5CC5)c4n3)cc(Cl)c2C1=O`, the IC50 turned out to be 1430 nM.

Consider `C[C@H](N1Cc2cc(-c3ccn4nc(N)c(C(=O)NC5CC5)c4n3)cc(NS(C)(=O)=O)c2C1=O)C(F)(F)F`, for which the IC50 worked out at 68 nM.

With `C[C@@H](C1CC1)N1Cc2cc(-c3ccn4nc(N)c(C(=O)NC5CC5)c4n3)cc(C3CC3)c2C1=O`, the IC50 was 829 nM.

Tested on in another series: not listed separately
Briefly: Metabolic stability in human hepatocytes assessed as intrinsic clearance per 10^6 cells at 0.5 uM by LC-MS/MS analysis. The format is ADME, cell-based, Hepatocyte. Conditions: read-out: CLH.
For the molecule `C[C@@H](C1CC1)N1Cc2cc(-c3ccn4nc(N)c(C(=O)NC5CC5)c4n3)cc(S(=O)(=O)C3CCC3)c2C1=O`, the hepatocyte CLint at 0.5 µM was determined as 4.89 µL/min/1e6 cells.

Consider `C[C@@H](C1CC1)N1Cc2cc(-c3ccn4nc(N)c(C(=O)NC5CC5)c4n3)cc(Cl)c2C1=O`, for which the hepatocyte CLint at 0.5 µM is less than 1.2 µL/min/1e6 cells.

For `C[C@H](N1Cc2cc(-c3ccn4nc(N)c(C(=O)NC5CC5)c4n3)cc(NS(C)(=O)=O)c2C1=O)C(F)(F)F`, the hepatocyte CLint at 0.5 µM is less than 1.2 µL/min/1e6 cells.

Take `C[C@@H](C1CC1)N1Cc2cc(-c3ccn4nc(N)c(C(=O)NC5CC5)c4n3)cc(C3CC3)c2C1=O`: the hepatocyte CLint at 0.5 µM turned out to be 4.23 µL/min/1e6 cells.

The next series addresses T2, Phosphatidylinositol 4,5-bisphosphate 3-kinase catalytic subunit gamma isoform (Homo sapiens, UniProt P48736). Briefly: Inhibition of PI3Kgamma (unknown origin) in […] stimulated human THP-1 cells assessed as reduction in Akt phosphorylation level at Ser473 residue preincubated for 60 mins followed by rhMCP-1 stimulation and measured after 2 mins by AlphaLisa assay. The format is cell-based.
Conditions: not given
(In general: In Alpha technology, singlet oxygen from a donor bead excites a nearby acceptor bead.)
As to `C[C@@H](C1CC1)N1Cc2cc(-c3ccn4nc(N)c(C(=O)NC5CC5)c4n3)cc(S(=O)(=O)C3CCC3)c2C1=O`, the IC50 amounted to 50 nM.

`C[C@@H](C1CC1)N1Cc2cc(-c3ccn4nc(N)c(C(=O)NC5CC5)c4n3)cc(Cl)c2C1=O`: the concentration for half-maximal inhibition (IC50) was 103 nM.

As to `C[C@H](N1Cc2cc(-c3ccn4nc(N)c(C(=O)NC5CC5)c4n3)cc(NS(C)(=O)=O)c2C1=O)C(F)(F)F`, the IC50 worked out at 16 nM.

Turning to `C[C@@H](C1CC1)N1Cc2cc(-c3ccn4nc(N)c(C(=O)NC5CC5)c4n3)cc(C3CC3)c2C1=O`, the IC50 was found to be 66 nM.

Tested on in a further series: not listed separately
Briefly: Metabolic stability in rat hepatocyte assessed as intrinsic clearance per 10^8 cells at 0.5 uM by LC-MS/MS analysis. The format is ADME, cell-based. To be noted: hepatocytes.
Regarding `C[C@@H](C1CC1)N1Cc2cc(-c3ccn4nc(N)c(C(=O)NC5CC5)c4n3)cc(S(=O)(=O)C3CCC3)c2C1=O`, the hepatocyte intrinsic clearance turned out to be 4.14 µL/min.

Regarding `C[C@@H](C1CC1)N1Cc2cc(-c3ccn4nc(N)c(C(=O)NC5CC5)c4n3)cc(Cl)c2C1=O`, the hepatocyte intrinsic clearance worked out at 2.89 µL/min.

For the molecule `C[C@H](N1Cc2cc(-c3ccn4nc(N)c(C(=O)NC5CC5)c4n3)cc(NS(C)(=O)=O)c2C1=O)C(F)(F)F`, the hepatocyte intrinsic clearance is less than 1.2 µL/min.

For the molecule `C[C@@H](C1CC1)N1Cc2cc(-c3ccn4nc(N)c(C(=O)NC5CC5)c4n3)cc(C3CC3)c2C1=O`, the hepatocyte intrinsic clearance was 2.97 µL/min.

For a further series, the target named is T2, Phosphatidylinositol 4,5-bisphosphate 3-kinase catalytic subunit gamma isoform. Briefly: Inhibition of PI3Kgamma (unknown origin) using PIP2 as substrate preincubated for 1 hr followed by substrate addition and measured after 60 mins in presence of ATP by ADP-glo assay.
Conditions: not given
(In ADP-Glo the light output rises with the ADP produced.)
`C[C@@H](C1CC1)N1Cc2cc(-c3ccn4nc(N)c(C(=O)NC5CC5)c4n3)cc(S(=O)(=O)C3CCC3)c2C1=O`: the IC50 was 3 nM.

With `C[C@@H](C1CC1)N1Cc2cc(-c3ccn4nc(N)c(C(=O)NC5CC5)c4n3)cc(Cl)c2C1=O`, the IC50 is 2.4 nM.

Turning to `C[C@H](N1Cc2cc(-c3ccn4nc(N)c(C(=O)NC5CC5)c4n3)cc(NS(C)(=O)=O)c2C1=O)C(F)(F)F`, the IC50 is 0.8 nM.

As to `C[C@@H](C1CC1)N1Cc2cc(-c3ccn4nc(N)c(C(=O)NC5CC5)c4n3)cc(C3CC3)c2C1=O`, the half-inhibitory concentration (IC50) came to 4.7 nM.

In a further series the target is Phosphatidylinositol 4,5-bisphosphate 3-kinase catalytic subunit alpha isoform (Homo sapiens, UniProt P42336). Briefly: Inhibition of PI3Kalpha (unknown origin) using PIP2 as substrate preincubated for 1 hr followed by substrate addition and measured after 60 mins in presence of ATP by ADP-glo assay.
Sequence of Phosphatidylinositol 4,5-bisphosphate 3-kinase catalytic subunit alpha isoform (P42336 whole entry, canonical isoform): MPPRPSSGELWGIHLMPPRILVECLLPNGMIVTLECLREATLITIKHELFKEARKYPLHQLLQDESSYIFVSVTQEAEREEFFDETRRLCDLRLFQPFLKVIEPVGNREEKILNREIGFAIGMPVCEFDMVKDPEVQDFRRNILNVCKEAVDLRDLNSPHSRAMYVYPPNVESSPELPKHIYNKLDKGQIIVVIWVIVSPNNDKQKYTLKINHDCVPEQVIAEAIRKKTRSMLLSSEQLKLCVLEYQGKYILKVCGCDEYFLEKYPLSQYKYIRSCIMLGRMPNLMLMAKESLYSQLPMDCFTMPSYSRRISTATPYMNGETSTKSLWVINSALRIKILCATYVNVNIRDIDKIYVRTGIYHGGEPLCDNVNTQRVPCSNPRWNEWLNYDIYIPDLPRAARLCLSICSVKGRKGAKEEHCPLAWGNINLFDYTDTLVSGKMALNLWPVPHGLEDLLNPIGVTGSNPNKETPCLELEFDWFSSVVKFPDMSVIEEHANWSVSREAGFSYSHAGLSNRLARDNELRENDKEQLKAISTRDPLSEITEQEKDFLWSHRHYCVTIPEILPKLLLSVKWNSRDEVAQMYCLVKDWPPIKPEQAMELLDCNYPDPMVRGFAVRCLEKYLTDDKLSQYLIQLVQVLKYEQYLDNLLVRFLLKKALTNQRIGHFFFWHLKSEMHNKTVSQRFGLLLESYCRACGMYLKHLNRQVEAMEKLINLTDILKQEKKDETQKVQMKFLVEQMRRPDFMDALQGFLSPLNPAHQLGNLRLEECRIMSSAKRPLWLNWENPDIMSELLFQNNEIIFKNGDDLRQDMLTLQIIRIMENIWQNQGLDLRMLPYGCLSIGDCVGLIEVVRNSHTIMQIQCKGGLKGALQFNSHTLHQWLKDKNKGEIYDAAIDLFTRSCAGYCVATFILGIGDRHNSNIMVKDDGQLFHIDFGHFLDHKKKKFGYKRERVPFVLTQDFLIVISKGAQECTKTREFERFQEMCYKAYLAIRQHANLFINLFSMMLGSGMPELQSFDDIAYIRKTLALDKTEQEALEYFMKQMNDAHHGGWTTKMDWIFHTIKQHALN
Conditions: not given
As to `C[C@@H](C1CC1)N1Cc2cc(-c3ccn4nc(N)c(C(=O)NC5CC5)c4n3)cc(S(=O)(=O)C3CCC3)c2C1=O`, the IC50 turned out to be 512 nM.

Turning to `C[C@@H](C1CC1)N1Cc2cc(-c3ccn4nc(N)c(C(=O)NC5CC5)c4n3)cc(Cl)c2C1=O`, the IC50 is 686 nM.

As to `C[C@H](N1Cc2cc(-c3ccn4nc(N)c(C(=O)NC5CC5)c4n3)cc(NS(C)(=O)=O)c2C1=O)C(F)(F)F`, the IC50 was found to be 97 nM.

As to `C[C@@H](C1CC1)N1Cc2cc(-c3ccn4nc(N)c(C(=O)NC5CC5)c4n3)cc(C3CC3)c2C1=O`, the IC50 worked out at 572 nM.

The species named for the next series is Homo sapiens. Briefly: Selectivity ratio of IC50 for inhibition of PI3Kalpha (unknown origin) to IC50 for inhibition of PI3Kgamma (unknown origin).
Conditions: not given
For `C[C@@H](C1CC1)N1Cc2cc(-c3ccn4nc(N)c(C(=O)NC5CC5)c4n3)cc(Cl)c2C1=O`, the Ratio IC50 came out at 282.

For the molecule `C[C@@H](C1CC1)N1Cc2cc(-c3ccn4nc(N)c(C(=O)NC5CC5)c4n3)cc(C3CC3)c2C1=O`, the Ratio IC50 turned out to be 122.

In another series the target is CYP3A4 (Homo sapiens, UniProt P08684). As to the kind of experiment: in vitro. To be noted: human liver microsomes, probe midazolam.
Sequence of CYP3A4 (P08684 whole entry): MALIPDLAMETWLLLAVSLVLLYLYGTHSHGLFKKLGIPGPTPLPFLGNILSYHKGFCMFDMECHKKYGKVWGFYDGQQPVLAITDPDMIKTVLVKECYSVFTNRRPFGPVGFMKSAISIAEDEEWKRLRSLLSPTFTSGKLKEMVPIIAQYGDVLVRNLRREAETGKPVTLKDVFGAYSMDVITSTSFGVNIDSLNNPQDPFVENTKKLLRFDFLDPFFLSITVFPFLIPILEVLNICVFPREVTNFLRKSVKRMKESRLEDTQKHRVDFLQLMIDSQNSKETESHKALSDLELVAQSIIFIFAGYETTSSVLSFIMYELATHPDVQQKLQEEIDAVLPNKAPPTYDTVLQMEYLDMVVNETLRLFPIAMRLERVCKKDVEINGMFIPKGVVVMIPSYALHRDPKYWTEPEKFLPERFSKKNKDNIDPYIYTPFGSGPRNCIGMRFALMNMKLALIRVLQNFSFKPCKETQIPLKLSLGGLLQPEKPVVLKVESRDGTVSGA
Description: Time dependent inhibition of CYP3A4 in human liver microsomes at 10 uM using midazolam as substrate preincubated for 30 mins in presence of NADPH by LC/MS/MS analysis relative to control
The inhibition is the change of the read-out against control, counted positive when it falls. Molecule `C[C@@H](C1CC1)N1Cc2cc(-c3ccn4nc(N)c(C(=O)NC5CC5)c4n3)cc(S(=O)(=O)C3CCC3)c2C1=O` had an inhibition at 30 min, 10 µM of 35%.

In the case of `C[C@@H](C1CC1)N1Cc2cc(-c3ccn4nc(N)c(C(=O)NC5CC5)c4n3)cc(Cl)c2C1=O`, the inhibition at 30 min, 10 µM worked out at 36%.

Molecule `C[C@H](N1Cc2cc(-c3ccn4nc(N)c(C(=O)NC5CC5)c4n3)cc(NS(C)(=O)=O)c2C1=O)C(F)(F)F` had an inhibition at 30 min, 10 µM of 14%.

The molecule `C[C@@H](C1CC1)N1Cc2cc(-c3ccn4nc(N)c(C(=O)NC5CC5)c4n3)cc(C3CC3)c2C1=O` returned an inhibition at 30 min, 10 µM of 38%.
